The results in this text go back to patent publication US11332485B2, “Penicillin-binding protein inhibitors” (priority 2017, dated 2022).

Assay [1] addresses T1, PBP1b from Escherichia coli (Escherichia coli, UniProt P02919).
T1 construct: made in house
Put plainly: Radioligand competition binding assay with 14C-labeled boronic acid probe (Example 96). The note with it: 14C-labeled probe 96 at 20 μM, PBP 0.1 μM; read-out: E. coli K12 PBP1b EC50. Summed up: (§1)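 Purified PBP (0.1 μM) in 20 mM Tris pH 7.5, 500 mM NaCl, 0.1% Triton X-100 preincubated 60 min with inhibitor, then 60 min with 20 μM 14C-boronic acid probe. Bound probe recovered by spin desalting and counted by scintillation; EC50 is the concentration halving probe binding.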
(In a radioligand displacement assay an active substance lowers the binding of a labelled ligand.)

Assay [2] has as its target T2, PBP1a from Escherichia coli (Escherichia coli, UniProt P02918).
T2 construct: made in house
Described as above. The note with it: 14C-labeled probe 96 at 20 μM, PBP 0.1 μM; read-out: E. coli K12 PBP1a EC50. Summed up:
as §1

The next assay has as its system E. coli PBP1b. The assay is described as follows: Bocillin FL competition binding assay (SDS-PAGE gel, membrane PBPs). More on the design: species or system Escherichia coli. The conditions noted are these: 15 min. pre-incubation, membrane protein extracts, SDS-PAGE fluorescence scan. The method, then:
(§2) To determine the ability of test compounds to bind Penicillin Binding Proteins (PBPs), a competition binding assay using Bocillin FL (fluorescent derivative of penicillin V) was adapted from the classical method used to assess PBP potency of beta-lactams.
Penicillin binding proteins were isolated from Escherichia coli K12 by growth of Escherichia coli K12 from a single colony in 4 L of Luria-Bertani (LB) broth at 35° C. and 250 rpm to an OD600 nm of 0.5. The cells were harvested by centrifugation at 7,000×g for 10 min. at 4° C. Cells were resuspended and washed in 50 mM potassium phosphate pH 7.5. […] The membrane proteins are washed twice with 10 mM sodium phosphate pH 7, resuspended in a volume of 5 mL, quantitated by BCA assay, adjusted to 10 μg/mL and frozen at −80° C. until use.
The adapted Bocillin FL competition binding assay described herein incorporates a 15 min. pre-incubation of test compound with isolated PBPs to attempt to balance the difference in mechanism of inhibition between beta-lactams (largely irreversible covalent bond to active site Serine) and the boron-containing PBP inhibitor test compounds (reversible covalent bond to active site Serine). […] The SDS-PAGE gel, post-electrophoresis, is then washed in water to remove excess SDS for 10 minutes at room temperature and placed on the scanning bed of a GE Healthcare/Amersham Biosciences Storm 860 fluorescence scanner. […]

Another assay addresses T3, E. coli K12 PBP1a (Escherichia coli, UniProt P02918).
T3 construct: 100 μg's of total membrane protein extracts containing PBPs; endogenous in cells; host or cells: Escherichia coli K12 membrane fraction
Described as above. The note with it: 15 min. pre-incubation, membrane protein extracts, SDS-PAGE fluorescence scan. The method, then: as §2
(§3) Penicillin binding proteins were isolated from Escherichia coli K12 by growth of Escherichia coli K12 from a single colony in 4 L of Luria-Bertani (LB) broth at 35° C. and 250 rpm to an OD600 nm of 0.5. The cells were harvested by centrifugation at 7,000×g for 10 min. at 4° C. Cells were resuspended and washed in 50 mM potassium phosphate pH 7.5. The cells were re-suspended in sonication buffer [50 mM Tris-HCl pH 7.5, 1 mM MgCl2, 1 mM beta-mercaptoethanol, and 5 μg/mL DNAse I] and sonicated by 4 passes of 30 seconds at 45 W on ice. The sample was clarified by centrifugation at 3,000×g to remove cell debris and unbroken cells and supernatant containing the membrane proteins was retained. The membrane proteins including the PBPs were further purified from soluble constituents by an ultracentrifugation step at 100,000×g for 30 min. at 4° C. The membrane proteins are washed twice with 10 mM sodium phosphate pH 7, resuspended in a volume of 5 mL, quantitated by BCA assay, adjusted to […] and frozen at −80° C. until use.
(§4) The adapted Bocillin FL competition binding assay described herein incorporates a 15 min. pre-incubation of test compound with isolated PBPs to attempt to balance the difference in mechanism of inhibition between beta-lactams (largely irreversible covalent bond to active site Serine) and the boron-containing PBP inhibitor test compounds (reversible covalent bond to active site Serine). Briefly, 50 μL reactions consisted of 100 μg's of total membrane protein extracts containing PBPs incubated with a dilution series of test compound ranging from 0.005 μg/mL to 2,480 μg/mL in 10 mM sodium phosphate pH7 containing 350 mM NaCl. Thirty minute reactions at 35° C. were initiated by addition of […] Bocillin FL, quenched by addition of SDS-PAGE loading buffer containing sodium dodecyl sulfate (SDS) and heated for 15 minutes at 95° C. to denature proteins in preparation for SDS-polyacrylamide gel electrophoresis. The Bocillin FL labeled PBPs are then separated by SDS-PAGE in Novex NuPage 10% Bis-Tris pre-cast gels (Invitrogen). The SDS-PAGE gel, post-electrophoresis, is then washed in water to remove excess SDS for 10 minutes at room temperature and placed on the scanning bed of a GE Healthcare/Amersham Biosciences Storm 860 fluorescence scanner. […] Effective PBP inhibitors are detected by a reduction in Bocillin FL labeling of the particular PBP over the dose range of test compound in a dose-responsive manner. […]

The target in another assay is T4, E. coli PBP3 (Escherichia coli, UniProt P0AD68).
T4 construct: 100 μg's of total membrane protein extracts containing PBPs; endogenous in cells; host or cells: Escherichia coli K12 membrane fraction
The assay is described as above. The note with it: 15 min. pre-incubation, membrane protein extracts, SDS-PAGE fluorescence scan. The protocol: as §2, §3, §4

T4 sequence (P0AD68 1-577): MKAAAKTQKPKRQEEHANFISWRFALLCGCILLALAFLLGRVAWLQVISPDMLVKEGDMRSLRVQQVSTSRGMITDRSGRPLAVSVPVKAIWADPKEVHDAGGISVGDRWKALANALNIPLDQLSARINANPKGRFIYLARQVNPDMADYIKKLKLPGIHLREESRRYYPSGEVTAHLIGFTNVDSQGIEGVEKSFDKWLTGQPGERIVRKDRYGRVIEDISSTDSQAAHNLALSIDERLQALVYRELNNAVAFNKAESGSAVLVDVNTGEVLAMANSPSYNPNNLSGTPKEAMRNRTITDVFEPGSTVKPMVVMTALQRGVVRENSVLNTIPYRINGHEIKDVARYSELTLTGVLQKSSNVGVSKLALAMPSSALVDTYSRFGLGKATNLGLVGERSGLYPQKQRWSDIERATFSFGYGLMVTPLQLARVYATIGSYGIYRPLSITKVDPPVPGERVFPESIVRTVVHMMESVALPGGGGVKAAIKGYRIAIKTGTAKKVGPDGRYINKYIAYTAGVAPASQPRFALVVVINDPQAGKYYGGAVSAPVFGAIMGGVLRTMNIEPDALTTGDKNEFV
T1 sequence (P02919 whole entry): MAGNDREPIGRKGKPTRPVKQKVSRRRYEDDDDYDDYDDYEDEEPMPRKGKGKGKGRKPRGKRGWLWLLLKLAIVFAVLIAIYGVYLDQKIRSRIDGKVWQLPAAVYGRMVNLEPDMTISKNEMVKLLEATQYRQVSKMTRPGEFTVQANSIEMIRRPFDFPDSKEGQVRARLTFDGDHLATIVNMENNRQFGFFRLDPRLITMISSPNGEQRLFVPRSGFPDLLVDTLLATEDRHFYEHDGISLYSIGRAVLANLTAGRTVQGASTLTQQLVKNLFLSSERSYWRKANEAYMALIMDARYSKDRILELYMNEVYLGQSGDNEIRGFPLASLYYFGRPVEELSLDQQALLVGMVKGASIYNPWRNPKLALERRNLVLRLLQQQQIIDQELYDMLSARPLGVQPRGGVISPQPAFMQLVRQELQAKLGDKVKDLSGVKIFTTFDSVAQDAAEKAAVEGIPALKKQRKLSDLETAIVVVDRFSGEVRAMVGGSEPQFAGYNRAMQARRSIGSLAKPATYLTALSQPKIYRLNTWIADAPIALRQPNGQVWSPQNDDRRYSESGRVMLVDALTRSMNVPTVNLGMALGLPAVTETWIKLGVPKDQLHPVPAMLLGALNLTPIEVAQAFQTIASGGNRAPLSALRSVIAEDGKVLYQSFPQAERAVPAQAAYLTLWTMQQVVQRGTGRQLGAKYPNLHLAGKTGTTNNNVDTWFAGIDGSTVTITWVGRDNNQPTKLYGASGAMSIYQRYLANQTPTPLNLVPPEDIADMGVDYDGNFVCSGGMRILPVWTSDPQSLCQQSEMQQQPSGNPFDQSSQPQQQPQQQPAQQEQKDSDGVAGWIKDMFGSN
T2 sequence (P02918 whole entry): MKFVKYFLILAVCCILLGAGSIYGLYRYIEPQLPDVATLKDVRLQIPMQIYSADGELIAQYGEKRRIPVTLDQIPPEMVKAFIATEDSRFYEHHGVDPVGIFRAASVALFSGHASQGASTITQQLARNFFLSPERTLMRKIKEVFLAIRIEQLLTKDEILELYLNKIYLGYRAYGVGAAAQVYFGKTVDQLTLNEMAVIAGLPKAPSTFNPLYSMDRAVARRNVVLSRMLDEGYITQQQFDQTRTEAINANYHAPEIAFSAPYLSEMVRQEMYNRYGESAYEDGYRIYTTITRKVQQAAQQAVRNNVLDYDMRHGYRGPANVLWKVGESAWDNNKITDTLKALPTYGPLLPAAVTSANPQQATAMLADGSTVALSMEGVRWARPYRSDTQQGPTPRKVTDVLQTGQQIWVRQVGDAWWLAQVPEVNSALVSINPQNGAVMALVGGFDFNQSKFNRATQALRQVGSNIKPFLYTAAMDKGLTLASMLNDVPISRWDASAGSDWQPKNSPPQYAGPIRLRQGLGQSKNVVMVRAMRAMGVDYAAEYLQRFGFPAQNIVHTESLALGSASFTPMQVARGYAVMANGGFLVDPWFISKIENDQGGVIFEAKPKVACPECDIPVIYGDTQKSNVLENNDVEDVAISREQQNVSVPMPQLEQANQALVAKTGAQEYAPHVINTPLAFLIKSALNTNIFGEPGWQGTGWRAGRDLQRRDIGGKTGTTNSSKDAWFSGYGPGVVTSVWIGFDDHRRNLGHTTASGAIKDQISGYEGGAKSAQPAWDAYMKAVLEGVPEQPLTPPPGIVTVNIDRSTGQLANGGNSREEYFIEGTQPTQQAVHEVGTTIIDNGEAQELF
T3 sequence (P02918 whole entry): as above

Turning to `CCN1CCN(C(=O)NC(C(=O)N[C@H]2Cc3cccc(C(=O)O)c3OB2O)c2csc(N)n2)C(=O)C1=O` (stereo partly drawn) [Example 12, (3R)-3-(2-(2-aminothiazol-4-yl)-2-(4-ethyl-2,3-dioxopiperazine-1-carboxamido)acetamido)-2-hydroxy-3,4-dihydro-2H-benzo[e][1,2]oxaborinine-8-carboxylic acid], the concentration giving a half-maximal response (EC50) in assay [1] and in assay [2] was less than 10 µM each time. The “E. coli PBP1b Potency” value in the assay with E. coli PBP1b is recorded as “C (C represents a potency of <64 μg/mL)”. In addition, on E. coli K12 PBP1a, the “E. coliK12 PBP1a Potency” value was “B (B represents a potency between 64 and 1000 μg/mL inclusive)”. For the same compound, the “E. coli PBP3 Potency” value on E. coli PBP3 is reported as “A (A represents a potency of >1000 μg/mL)”.
